Measurements published in US20230263822A1, “MODULATION OF FACTOR 11 EXPRESSION” (Ionis Pharmaceuticals, Inc., priority 2008, published 2023).
Strand notation (5' to 3'): a small letter for the sugar, then the base; units joined by * are phosphorothioate-linked, units joined directly phosphodiester-linked; [ ] holds rarer units or linkages, { } end groups; capitals alone tell only the bases. e = 2'-O-(2-methoxyethyl) (MOE); [5mC] = 5-methylcytosine; d = 2'-deoxy (DNA)

Tests used:
Format in all cases: cell-based
human Factor 11 mRNA [1] = assay: Antisense inhibition of human Factor 11 in HepG2 cells by microwalk gapmers, lipofectin, 75 nM (Example 3)
Summary of the method: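 HepG2 cells (10,000/well) were transfected via lipofectin with 75 nM 20-mer MOE gapmers (phosphorothioate, 5-methyl-C) for about 24 h. Factor 11 mRNA was measured by qRT-PCR, normalized to RIBOGREEN total RNA, and given as percent inhibition versus untreated cells.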

human Factor 11 mRNA [2] = assay: Dose-dependent inhibition of human Factor 11 in HepG2 cells, electroporation 0.7-20 uM (Example 4); settings: for percent inhibition of Factor 11 at 0.7 μM / percent inhibition of Factor 11 at 2.2 μM / percent inhibition of Factor 11 at 6.7 μM / percent inhibition of Factor 11 at 20 μM: relative to untreated control cells
Experimental: (§1) The gapmers were also transfected via electroporation and their dose dependent inhibition of human Factor 11 mRNA was measured. Cells were plated at a density of 20,000 cells per well and transfected via electroporation with 0.7 μM, 2.2 μM, 6.7 μM, and 20 μM concentrations of antisense oligonucleotide, as specified in Table 10. After a treatment period of approximately 16 hours, RNA was isolated from the cells and Factor 11 mRNA levels were measured by quantitative real-time PCR. Human Factor 11 primer probe set RTS 2966 was used to measure mRNA levels. Factor 11 mRNA levels were adjusted according to total RNA content, as measured by RIBOGREEN. Results are presented as percent inhibition of Factor 11, relative to untreated control cells.

human Factor 11 mRNA [3] = assay: Dose-dependent inhibition of human Factor 11 in HepG2 cells, lipofectin 9.375-75 nM (Example 4); settings: for percent inhibition of Factor 11 at 9.375 nM / percent inhibition of Factor 11 at 18.75 nM / percent inhibition of Factor 11 at 37.5 nM / percent inhibition of Factor 11 at 75 nM: relative to untreated control cells
Experimental: as §1, with “Cells” for “The gapmers were also transfected via electroporation and their dose dependent inhibition of human Factor 11 mRNA was measured. Cells”, “10,000” for “20,000”, “using lipofectin reagent” for “via electroporation”, “9.375 nM, 18.75 nM, 37.5 nM” for “0.7 μM, 2.2 μM, 6.7 μM,”, “75 nM” for “20 μM”, “9.” for “10.”

[4] = HepG2 cells, lipofectin, gapmers targeted to nucleobases 1018 to 1042 of SEQ ID NO: 1
[5] = HepG2, lipofectin, ~24 h, gapmers targeted to nucleobases 656 to 704 of SEQ ID NO: 1
[6] = HepG2 cells, lipofectin, gapmers targeted to nucleobases 1275 to 1318 of SEQ ID NO: 1
[7] = HepG2 cells, lipofectin, gapmers targeted to nucleobases 1062 to 1091 of SEQ ID NO: 1
[8] = HepG2 cells, lipofectin, gapmers targeted to nucleobases 738 to 762 of SEQ ID NO: 1

| Substance | IC50 (human Factor 11 mRNA [2]) | percent inhibition of Factor 11 at 0.7 μM (human Factor 11 mRNA [2]) | percent inhibition of Factor 11 at 2.2 μM (human Factor 11 mRNA [2]) | percent inhibition of Factor 11 at 6.7 μM (human Factor 11 mRNA [2]) | percent inhibition of Factor 11 at 20 μM (human Factor 11 mRNA [2]) | IC50 (human Factor 11 mRNA [3]) | percent inhibition of Factor 11 at 9.375 nM (human Factor 11 mRNA [3]) | percent inhibition of Factor 11 at 18.75 nM (human Factor 11 mRNA [3]) | percent inhibition of Factor 11 at 37.5 nM (human Factor 11 mRNA [3]) | percent inhibition of Factor 11 at 75 nM (human Factor 11 mRNA [3]) | other results |
| --- | --- | --- | --- | --- | --- | --- | --- | --- | --- | --- | --- |
| 416985 (antisense eG*e[5mC]*dA*dA*d[5mC]*d[5mC]*dG*dG*dG*dA*dT*dG*dA*dT*dG*eA*eG*eT*eG*e[5mC]) [compound 416985] | 5800 nM | 12% | 48% | 45% | 69% | 49 nM | 17% | 30% | 47% | 57% | % inhibition (human Factor 11 mRNA [1]; [4]): 88% |
| 416878 (antisense eG*eG*eT*d[5mC]*d[5mC]*dA*d[5mC]*dA*dT*dA*dA*dA*dT*dG*dT*d[5mC]*dT*eT*eT*eG) [compound 416878] | 4300 nM | 1% | 26% | 75% | 85% | 27 nM | 22% | 34% | 60% | 82% | % inhibition (human Factor 11 mRNA [1]; [5]): 95% |
| 416926 (antisense eT*eG*eG*dT*dG*d[5mC]*dA*d[5mC]*dA*dG*dT*dT*dT*d[5mC]*dT*dG*dG*e[5mC]*eA*eG) [compound 416926] | 600 nM | 47% | 71% | 91% | 94% | 22 nM | 31% | 43% | 63% | 82% | % inhibition (human Factor 11 mRNA [1]; [6]): 93% |
| 416945 (antisense eA*eA*dT*dG*dT*d[5mC]*dT*dT*dT*dG*dT*dT*dG*d[5mC]*dA*eA*eG*e[5mC]*eG*e[5mC]) [compound 416945] | 600 nM | 48% | 70% | 81% | 88% | 24 nM | 34% | 45% | 62% | 65% | % inhibition (human Factor 11 mRNA [1]; [5]): 94% |
| 416984 (antisense e[5mC]*eA*dA*d[5mC]*d[5mC]*dG*dG*dG*dA*dT*dG*dA*dT*dG*dA*eG*eT*eG*e[5mC]*eA) [compound 416984] | 1100 nM | 43% | 54% | 88% | 90% | 22 nM | 26% | 50% | 62% | 81% | % inhibition (human Factor 11 mRNA [1]; [4]): 89% |
| 416908 (antisense eG*e[5mC]*eA*dA*d[5mC]*d[5mC]*dG*dG*dG*dA*dT*dG*dA*dT*dG*dA*dG*eT*eG*e[5mC]) [compound 416908] | 2800 nM | 7% | 58% | 74% | 89% | 16 nM | 36% | 57% | 67% | 76% | % inhibition (human Factor 11 mRNA [1]; [4]): 98% |
| 416993 (antisense e[5mC]*eT*dT*dT*dG*dA*dG*dA*dT*dT*d[5mC]*dT*dT*dT*dG*eG*eG*e[5mC]*e[5mC]*eA) [compound 416993] | 2200 nM | 22% | 48% | 87% | 92% | 36 nM | 15% | 37% | 50% | 68% | % inhibition (human Factor 11 mRNA [1]; [7]): 91% |
| 416989 (antisense eG*eA*dG*dA*dT*dT*d[5mC]*dT*dT*dT*dG*dG*dG*d[5mC]*d[5mC]*eA*eT*eT*e[5mC]*e[5mC]) [compound 416989] | 1300 nM | 32% | 65% | 88% | 94% | 26 nM | 18% | 41% | 62% | 83% | % inhibition (human Factor 11 mRNA [1]; [7]): 88% |
| 417000 (antisense eT*eG*d[5mC]*dA*d[5mC]*dA*dG*dT*dT*dT*d[5mC]*dT*dG*dG*d[5mC]*eA*eG*eG*e[5mC]*e[5mC]) [compound 417000] | 600 nM | 46% | 73% | 76% | 89% | 23 nM | 35% | 47% | 58% | 70% | % inhibition (human Factor 11 mRNA [1]; [6]): 89% |
| 416998 (antisense e[5mC]*eA*d[5mC]*dA*dG*dT*dT*dT*d[5mC]*dT*dG*dG*d[5mC]*dA*dG*eG*e[5mC]*e[5mC]*eT*e[5mC]) [compound 416998] | – | – | – | – | – | – | – | – | – | – | % inhibition (human Factor 11 mRNA [1]; [6]): 88% |
| 416903 (antisense eG*eT*e[5mC]*dA*dT*d[5mC]*d[5mC]*dG*dT*dG*d[5mC]*dA*dT*d[5mC]*dT*dT*dT*e[5mC]*eT*eT) [compound 416903] | – | – | – | – | – | – | – | – | – | – | % inhibition (human Factor 11 mRNA [1]; [8]): 88% |
| 416939 (antisense e[5mC]*eA*eG*d[5mC]*dG*dG*dA*d[5mC]*dG*dG*d[5mC]*dA*dT*dT*dG*dG*dT*eG*e[5mC]*eA) [compound 416939] | – | – | – | – | – | – | – | – | – | – | % inhibition (human Factor 11 mRNA [1]; [6]): 88% |
| 416979 (antisense eT*e[5mC]*dA*dT*d[5mC]*d[5mC]*dG*dT*dG*d[5mC]*dA*dT*d[5mC]*dT*dT*eT*e[5mC]*eT*eT*eG) [compound 416979] | – | – | – | – | – | – | – | – | – | – | % inhibition (human Factor 11 mRNA [1]; [8]): 63% |
| 416912 (antisense eG*eA*eG*dA*dT*dT*d[5mC]*dT*dT*dT*dG*dG*dG*d[5mC]*d[5mC]*dA*dT*eT*e[5mC]*e[5mC]) [compound 416912] | – | – | – | – | – | – | – | – | – | – | % inhibition (human Factor 11 mRNA [1]; [7]): 92% |
| 416810 (antisense e[5mC]*eA*e[5mC]*eA*eT*dA*dA*dA*dT*dG*dT*d[5mC]*dT*dT*dT*eG*eT*eT*eG*e[5mC]) [compound 416810] | – | – | – | – | – | – | – | – | – | – | % inhibition (human Factor 11 mRNA [1]; [5]): 68% |
| 417006 (antisense e[5mC]*eA*dT*dT*dG*dG*dT*dG*d[5mC]*dA*d[5mC]*dA*dG*dT*dT*eT*e[5mC]*eT*eG*eG) [compound 417006] | – | – | – | – | – | – | – | – | – | – | % inhibition (human Factor 11 mRNA [1]; [6]): 81% |
| 416828 (antisense eT*eT*eA*eT*eG*d[5mC]*d[5mC]*d[5mC]*dT*dT*d[5mC]*dA*dT*dG*dT*e[5mC]*eT*eA*eG*eG) [compound 416828] | – | – | – | – | – | – | – | – | – | – | % inhibition (human Factor 11 mRNA [1]; [5]): 87% |
| 416915 (antisense eT*eT*eT*dG*dA*dG*dA*dT*dT*d[5mC]*dT*dT*dT*dG*dG*dG*d[5mC]*e[5mC]*eA*eT) [compound 416915] | – | – | – | – | – | – | – | – | – | – | % inhibition (human Factor 11 mRNA [1]; [7]): 79% |
| 416916 (antisense e[5mC]*eT*eT*dT*dG*dA*dG*dA*dT*dT*d[5mC]*dT*dT*dT*dG*dG*dG*e[5mC]*e[5mC]*eA) [compound 416916] | – | – | – | – | – | – | – | – | – | – | % inhibition (human Factor 11 mRNA [1]; [7]): 91% |
| 416888 (antisense eT*eT*e[5mC]*dA*dT*dG*dT*d[5mC]*dT*dA*dG*dG*dT*d[5mC]*d[5mC]*dA*d[5mC]*eA*eT*eA) [compound 416888] | – | – | – | – | – | – | – | – | – | – | % inhibition (human Factor 11 mRNA [1]; [5]): 76% |
| 416994 (antisense eT*e[5mC]*dT*dT*dT*dG*dA*dG*dA*dT*dT*d[5mC]*dT*dT*dT*eG*eG*eG*e[5mC]*e[5mC]) [compound 416994] | – | – | – | – | – | – | – | – | – | – | % inhibition (human Factor 11 mRNA [1]; [7]): 83% |
| 417001 (antisense eG*eT*dG*d[5mC]*dA*d[5mC]*dA*dG*dT*dT*dT*d[5mC]*dT*dG*dG*e[5mC]*eA*eG*eG*e[5mC]) [compound 417001] | – | – | – | – | – | – | – | – | – | – | % inhibition (human Factor 11 mRNA [1]; [6]): 83% |
| 416820 (antisense e[5mC]*eA*eT*eG*eT*d[5mC]*dT*dA*dG*dG*dT*d[5mC]*d[5mC]*dA*d[5mC]*eA*eT*eA*eA*eA) [compound 416820] | – | – | – | – | – | – | – | – | – | – | % inhibition (human Factor 11 mRNA [1]; [5]): 77% |
| 416964 (antisense eT*e[5mC]*dA*dT*dG*dT*d[5mC]*dT*dA*dG*dG*dT*d[5mC]*d[5mC]*dA*e[5mC]*eA*eT*eA*eA) [compound 416964] | – | – | – | – | – | – | – | – | – | – | % inhibition (human Factor 11 mRNA [1]; [5]): 69% |
